# Experimental data taken from ChEMBL document CHEMBL1131684, “Preparation of amino acid conjugates of betulinic acid with activity against human melanoma” (Bioorg Med Chem Lett, 1999).
# Experiments:
# [1] = test system: SK-MEL-2; assay: In vitro cytotoxicity (antitumor activity) against human melanoma (MEL-2) cell lines; type: functional; conditions: read-out: ED50 (the source's name)
# [2] = test system: KB; assay: In vitro cytotoxicity (antitumor activity) against human epidermoid carcinoma of mouth cell line (KB); type: functional; conditions: read-out: ED50 (the source's name)
# [3] = Water solubility of the compound; type: ADME; conditions: buffer
S [3] [Dilution factor],Structure (SMILES),EC50 [1] [µg/mL],EC50 [2] [µg/mL]
,C=C(C)[C@@H]1CC[C@]2(C(=O)N[C@H](C(=O)OC)[C@@H](C)CC)CC[C@]3(C)[C@H](CC[C@@H]4[C@@]5(C)CC[C@H](O)C(C)(C)[C@@H]5CC[C@]43C)[C@@H]12,> 20,> 20
,C=C(C)[C@@H]1CC[C@]2(C(=O)N[C@H](C(=O)O)[C@@H](C)CC)CC[C@]3(C)[C@H](CC[C@@H]4[C@@]5(C)CC[C@H](O)C(C)(C)[C@@H]5CC[C@]43C)[C@@H]12,> 20,> 20
5,C=C(C)[C@@H]1CC[C@]2(C(=O)N[C@@H](Cc3ccccc3)C(=O)OC)CC[C@]3(C)[C@H](CC[C@@H]4[C@@]5(C)CC[C@H](O)C(C)(C)[C@@H]5CC[C@]43C)[C@@H]12,9,> 20
,C=C(C)[C@@H]1CC[C@]2(C(=O)N[C@@H](CC(=O)OC)C(=O)OC)CC[C@]3(C)[C@H](CC[C@@H]4[C@@]5(C)CC[C@H](O)C(C)(C)[C@@H]5CC[C@]43C)[C@@H]12,> 20,> 20
,C=C(C)[C@@H]1CC[C@]2(C(=O)N[C@@H](CCC(=O)O)C(=O)O)CC[C@]3(C)[C@H](CC[C@@H]4[C@@]5(C)CC[C@H](O)C(C)(C)[C@@H]5CC[C@]43C)[C@@H]12,> 20,> 20
50,C=C(C)[C@@H]1CC[C@]2(C(=O)NCC(=O)OC)CC[C@]3(C)[C@H](CC[C@@H]4[C@@]5(C)CC[C@H](O)C(C)(C)[C@@H]5CC[C@]43C)[C@@H]12,10.2,> 20
,C=C(C)[C@@H]1CC[C@]2(C(=O)N[C@@H](Cc3c[nH]c4ccccc34)C(=O)OC)CC[C@]3(C)[C@H](CC[C@@H]4[C@@]5(C)CC[C@H](O)C(C)(C)[C@@H]5CC[C@]43C)[C@@H]12,> 20,> 20
20,C=C(C)[C@@H]1CC[C@]2(C(=O)N3CCC[C@H]3C(=O)O)CC[C@]3(C)[C@H](CC[C@@H]4[C@@]5(C)CC[C@H](O)C(C)(C)[C@@H]5CC[C@]43C)[C@@H]12,13.1,> 20
20,C=C(C)[C@@H]1CC[C@]2(C(=O)N[C@H](C(=O)O)C(C)C)CC[C@]3(C)[C@H](CC[C@@H]4[C@@]5(C)CC[C@H](O)C(C)(C)[C@@H]5CC[C@]43C)[C@@H]12,9,9
,C=C(C)[C@@H]1CC[C@]2(C(=O)N[C@@H](Cc3ccc(O)cc3)C(=O)OC)CC[C@]3(C)[C@H](CC[C@@H]4[C@@]5(C)CC[C@H](O)C(C)(C)[C@@H]5CC[C@]43C)[C@@H]12,> 20,> 20
5,C=C(C)[C@@H]1CC[C@]2(C(=O)N[C@@H](CCSC)C(=O)O)CC[C@]3(C)[C@H](CC[C@@H]4[C@@]5(C)CC[C@H](O)C(C)(C)[C@@H]5CC[C@]43C)[C@@H]12,9,> 20
,C=C(C)[C@@H]1CC[C@]2(C(=O)N[C@@H](CC(=O)O)C(=O)O)CC[C@]3(C)[C@H](CC[C@@H]4[C@@]5(C)CC[C@H](O)C(C)(C)[C@@H]5CC[C@]43C)[C@@H]12,> 20,> 20
5,C=C(C)[C@@H]1CC[C@]2(C(=O)N[C@@H](CC(C)C)C(=O)OC)CC[C@]3(C)[C@H](CC[C@@H]4[C@@]5(C)CC[C@H](O)C(C)(C)[C@@H]5CC[C@]43C)[C@@H]12,6.2,> 20
5,C=C(C)[C@@H]1CC[C@]2(C(=O)N[C@@H](CCSC)C(=O)OC)CC[C@]3(C)[C@H](CC[C@@H]4[C@@]5(C)CC[C@H](O)C(C)(C)[C@@H]5CC[C@]43C)[C@@H]12,12.8,> 20
20,C=C(C)[C@@H]1CC[C@]2(C(=O)N[C@@H](CCC(=O)OC)C(=O)OC)CC[C@]3(C)[C@H](CC[C@@H]4[C@@]5(C)CC[C@H](O)C(C)(C)[C@@H]5CC[C@]43C)[C@@H]12,15.3,> 20
,C=C(C)[C@@H]1CC[C@]2(C(=O)N[C@@H](Cc3ccccc3)C(=O)O)CC[C@]3(C)[C@H](CC[C@@H]4[C@@]5(C)CC[C@H](O)C(C)(C)[C@@H]5CC[C@]43C)[C@@H]12,> 20,> 20
,C=C(C)[C@@H]1CC[C@]2(C(=O)N3CCC[C@H]3C(=O)OC)CC[C@]3(C)[C@H](CC[C@@H]4[C@@]5(C)CC[C@H](O)C(C)(C)[C@@H]5CC[C@]43C)[C@@H]12,> 20,> 20
50,C=C(C)[C@@H]1CC[C@]2(C(=O)N[C@@H](C)C(=O)O)CC[C@]3(C)[C@H](CC[C@@H]4[C@@]5(C)CC[C@H](O)C(C)(C)[C@@H]5CC[C@]43C)[C@@H]12,1.5,4.6
,C=C(C)[C@@H]1CC[C@]2(C(=O)N[C@@H](Cc3ccc(O)cc3)C(=O)O)CC[C@]3(C)[C@H](CC[C@@H]4[C@@]5(C)CC[C@H](O)C(C)(C)[C@@H]5CC[C@]43C)[C@@H]12,> 20,> 20
5,C=C(C)[C@@H]1CC[C@]2(C(=O)N[C@H](C(=O)OC)C(C)C)CC[C@]3(C)[C@H](CC[C@@H]4[C@@]5(C)CC[C@H](O)C(C)(C)[C@@H]5CC[C@]43C)[C@@H]12,2.1,> 20
10,C=C(C)[C@@H]1CC[C@]2(C(=O)N[C@@H](Cc3c[nH]c4ccccc34)C(=O)O)CC[C@]3(C)[C@H](CC[C@@H]4[C@@]5(C)CC[C@H](O)C(C)(C)[C@@H]5CC[C@]43C)[C@@H]12,8.6,> 20
30,C=C(C)[C@@H]1CC[C@]2(C(=O)N[C@@H](C)C(=O)OC)CC[C@]3(C)[C@H](CC[C@@H]4[C@@]5(C)CC[C@H](O)C(C)(C)[C@@H]5CC[C@]43C)[C@@H]12,3.5,> 20

Structure (SMILES),S [3] [Dilution factor],EC50 [1] [µg/mL],EC50 [2] [µg/mL]
C=C(C)[C@@H]1CC[C@]2(C(=O)N[C@@H](CC(C)C)C(=O)O)CC[C@]3(C)[C@H](CC[C@@H]4[C@@]5(C)CC[C@H](O)C(C)(C)[C@@H]5CC[C@]43C)[C@@H]12,10,9,> 20
C=C(C)[C@@H]1CC[C@]2(C(=O)NCC(=O)O)CC[C@]3(C)[C@H](CC[C@@H]4[C@@]5(C)CC[C@H](O)C(C)(C)[C@@H]5CC[C@]43C)[C@@H]12,100,4.2,> 20
C=C(C)[C@@H]1CC[C@]2(C(=O)O)CC[C@]3(C)[C@H](CC[C@@H]4[C@@]5(C)CC[C@H](O)C(C)(C)[C@@H]5CC[C@]43C)[C@@H]12 [BETULINIC ACID],< 5,4.2,> 20
